Four compounds from US20240009220A1, “METHODS FOR TREATMENT OF VIRAL INFECTIONS” (priority 2022, published 2024) can be followed below.

The conditions of series [1]: female, New Zealand White, rabbit, in vivo, po, 125 mg/kg/day. The procedure: (§1) The effects of compound 16 on pregnant New Zealand White (NZW) rabbits and the development of the embryo consequent to exposure of the female from implantation to closure of the hard palate (Gestation Days [GD] 7 through 19) was evaluated. Compound 16 was administered to 4 groups of pregnant rabbits (20/group) at doses of 0 (0.5% methylcellulose in deionized water), 125, 250, and 500 mg/kg/day once daily via oral gavage during organogenesis (GD 7 to 19). Assessment of toxicity was based on mortality, clinical observations, body weights, food consumption, and necropsy and cesarean section findings. In addition, blood samples were collected for toxicokinetic evaluation of compound 16 and compound 1 from similarly dosed animals (4/group).

Another series concerns SARS-CoV-2 Fluc. The series is classed as cell-based.
The conditions of series [2]: female, Wistar Han, rat, in vivo, po, 250 mg/kg/day. The procedure:
(§2) The effects of compound 16 on pregnant Wistar Han rats and development of the embryo consequent to exposure of the female from implantation to closure of the hard palate were evaluated. Compound 16 was administered to 4 groups of presumed pregnant rats (8/group) at doses of 0 (vehicle), 125, 250, and 500 mg/kg/day via once daily gavage administration during organogenesis (gestation days [GD] 6 to 17) at a dose volume of 5 mL/kg. Additional pregnant rats were similarly dosed for toxicokinetic assessment of compound 16 and compound 1. Assessment of toxicity to the pregnant rats was based on mortality, clinical observations, body weights and food consumption. Rats were necropsied and cesarean sectioned on GD 21. An examination of the external features of the carcass; external body orifices; abdominal, thoracic, pelvic, and oral cavities; organs; and tissues was performed. Any macroscopic abnormalities were noted. Pregnancy status was determined. The uterus from each pregnant animal was excised, weighed, and examined for the number and placement of live and dead fetuses, the number of early or late resorptions, and any abnormalities. The right and left ovaries from each pregnant female were examined for the number of corpora lutea. Each fetus was sexed, weighed, and examined for external abnormalities. […]

In series [3] the test system is pregnant Wistar Han rats. Kind of series: Embryo-fetal development study of compound 16 by oral gavage in Wistar Han rats. The series is classed as in vivo. The conditions noted are these: 125 and 250 mg/kg/day, GD 6 to 17, rats. The procedure:
(§3) The potential of compound 16 to induce developmental toxicity after maternal exposure during the critical period of organogenesis (GD 6 through 17) were evaluated, maternal toxicity at the exposure levels tested was characterized, and a no observed-adverse-effect level (NOAEL) for maternal toxicity and developmental toxicity following oral administration in Wistar Han rats was determined.
(§4) Rats were necropsied and cesarean sectioned on GD 21. […] Any macroscopic abnormalities were noted. Pregnancy status was determined. […] The thoracic and abdominal cavities were opened and dissected using a technique described by Stuckhardt and Poppe (1984). Fetal kidneys were examined and graded for renal papillae development (Woo and Hoar, 1972). The heads from these fetuses were removed and placed in Harrison's fixative for soft tissue examination using the Wilson sectioning technique (Wilson, 1965). The remaining fetuses (approximately one-half from each litter), were eviscerated, fixed in 100% ethyl alcohol, macerated in potassium hydroxide and stained with Alizarin Red S by a method similar to that described by Dawson (1926) for subsequent examination of skeletons.

Test in series [4]: as above
The series is classed as in vivo. The settings on record: female, rat, in vivo; pregnant Wistar Han rats, once daily oral gavage GD 6 to 17, definitive study; read-out: no-observed-adverse-effect level (NOAEL) for maternal toxicity and embryofetal development. The protocol:
as §3, §4

Series [5] deals with pregnant New Zealand White (NZW) rabbits. Kind of series: Oral gavage embryo-fetal development study with compound 16 in rabbits. The procedure:
as §1

Test in series [6]: as above
The settings on record: female, New Zealand White, rabbit, in vivo, po. The procedure:
as §1

Series [7] has as its system pregnant Wistar Han rats. Nature of the series: Enhanced dose range-finding embryo-fetal development study of compound 16 by oral gavage in Wistar Han rats. The settings on record: rat, in vivo. The procedure:
as §2

Test in series [8]: as above
The settings on record: female, Wistar Han, rat, in vivo, po. The procedure: as §2

Read-outs that look alike come from different tables or passages of the source.

For the compound `N#C[C@@]1(c2ccc3c(N)ncnn23)O[C@H](CO)[C@@H](O)[C@H]1O` [Compound 1], the “compound 1 AUC0-24h exposure” value in series [1] was 64,100 ng*h/mL; in series [2], 183,000 ng*h/mL. Also, the “Bliss independence consensus score, Average of Replicates” value (“Bliss independence consensus score” below) in the series on SARS-CoV-2 Fluc was 8.00±1.09. In addition, the “drug combination effect by Bliss score” value with SARS-CoV-2 Fluc is listed as “Additive”.

For `CC(C)C(=O)OC[C@H]1O[C@@](C#N)(c2ccc3c(N)ncnn23)[C@H](O)[C@@H]1O` [Compound 16], in the series with pregnant Wistar Han rats [3], the “effects on intrauterine growth or survival” value was “No compound 16-related effects” and the “external, visceral or skeletal malformations or variations” value was “No compound 16-related external, visceral or skeletal malformations or variations”. The NOAEL (in general, the highest tested level that showed no adverse finding) in [4] is 250 mg/kg/day. In series [5] (rabbit fetuses), the skeletal malformations result is on record as “No compound 16-related skeletal malformations”. Besides, the fetal visceral findings result in series [5] (rabbit, in vivo, 250 mg/kg/day) is given as “increased rates of ventricular septum defects, large or small heart ventricles, dilated or malpositioned aortas, retroesophageal aortic arches, retroesophageal subclavian arteries, abnormal lobulation of the liver”. The no-observed-adverse-effect level (NOAEL) in series [6] is 125 mg/kg/day. In the series on SARS-CoV-2 Fluc, the “Bliss independence consensus score” value stood at 6.15±2.16 and the “drug combination effect by Bliss score” value was “Additive”. Further, the “tolerability of dose level” value with pregnant Wistar Han rats [7] is recorded as “not tolerated”. For the same compound, in series [8], the no-observed-adverse-effect level (NOAEL) was 250 mg/kg/day.

Turning to `CC(C)C(=O)OC[C@H]1O[C@@H](n2ccc(NO)nc2=O)[C@H](O)[C@@H]1O` [molnupiravir, Molnupiravir, reference compound], in the series with SARS-CoV-2 Fluc, the “Bliss independence consensus score” value was −2.47 and the “drug combination effect by Bliss score” value is “Additive”.

As for `CC(C)(C)[C@H](NC(=O)C(F)(F)F)C(=O)N1C[C@H]2[C@@H]([C@H]1C(=O)N[C@H](C#N)C[C@@H]1CCNC1=O)C2(C)C` [nirmatrelvir, reference compound], in the series with SARS-CoV-2 Fluc, the “Bliss independence consensus score” value is listed as 0.13±1.53 and the “drug combination effect by Bliss score” value is “Additive”.
